Results on 23 compounds are retold here after ChEMBL document CHEMBL3745702, “Synthesis of (3S,4S)-4-aminopyrrolidine-3-ol derivatives and biological evaluation for their BACE1 inhibitory activities” (Bioorg Med Chem Lett, 2016).

The target of data set [1] is T1, Beta-secretase 1 (Homo sapiens, UniProt P56817). Put plainly: Inhibition of BACE1 (unknown origin) by FRET assay.
Data set [2] has as its target T1, Beta-secretase 1. The data set is described as follows: Inhibition of BACE1 in […] PC12 cells expressing APP Sweden mutant at 10 uM. The data set is classed as cell-based. The conditions noted are these: PC-12.
The next data set addresses T2, Beta-secretase 2 (Homo sapiens, UniProt Q9Y5Z0).
T2 sequence (Q9Y5Z0 whole entry): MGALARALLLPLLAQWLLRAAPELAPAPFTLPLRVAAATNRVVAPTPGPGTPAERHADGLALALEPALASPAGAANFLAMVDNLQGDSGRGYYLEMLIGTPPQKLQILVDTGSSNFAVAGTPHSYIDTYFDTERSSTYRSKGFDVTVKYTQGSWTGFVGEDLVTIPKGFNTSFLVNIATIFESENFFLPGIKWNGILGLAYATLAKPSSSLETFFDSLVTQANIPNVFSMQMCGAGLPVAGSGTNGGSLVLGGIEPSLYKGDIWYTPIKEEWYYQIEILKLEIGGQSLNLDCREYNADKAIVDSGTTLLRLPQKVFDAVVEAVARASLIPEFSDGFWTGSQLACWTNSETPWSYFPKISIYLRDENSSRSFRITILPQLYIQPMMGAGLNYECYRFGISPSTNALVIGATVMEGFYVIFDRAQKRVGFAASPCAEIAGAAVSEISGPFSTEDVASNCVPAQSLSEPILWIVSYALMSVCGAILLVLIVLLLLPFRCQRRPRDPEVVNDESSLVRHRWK
Put plainly: Inhibition of BACE2 (unknown origin).

Data set [3] addresses T3, Cathepsin D (Homo sapiens, UniProt P07339). Put plainly: Inhibition of cathepsin D (unknown origin) at 10 uM.
The nature of data set [4]: Permeability from apical to basolateral side in MDCK cells at 50 uM. It is filed as ADME, cell-based, Canis lupus familiaris. Particulars: dog.
In data set [5] the target is T3, Cathepsin D. Put plainly: Inhibition of cathepsin D (unknown origin).
Data set [6] addresses T1, Beta-secretase 1. The data set is described as follows: Inhibition of BACE1 in […] PC12 cells expressing APP Sweden mutant. The data set is classed as cell-based, PC-12.
Data set [7] deals with T1, Beta-secretase 1. Put plainly: Inhibition of BACE1 (unknown origin).

T3 sequence (P07339 65-162 limits assumed): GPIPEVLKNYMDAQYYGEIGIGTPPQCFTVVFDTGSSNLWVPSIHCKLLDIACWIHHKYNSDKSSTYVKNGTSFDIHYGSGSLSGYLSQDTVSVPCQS
T3 sequence (P07339 169-412 limits assumed): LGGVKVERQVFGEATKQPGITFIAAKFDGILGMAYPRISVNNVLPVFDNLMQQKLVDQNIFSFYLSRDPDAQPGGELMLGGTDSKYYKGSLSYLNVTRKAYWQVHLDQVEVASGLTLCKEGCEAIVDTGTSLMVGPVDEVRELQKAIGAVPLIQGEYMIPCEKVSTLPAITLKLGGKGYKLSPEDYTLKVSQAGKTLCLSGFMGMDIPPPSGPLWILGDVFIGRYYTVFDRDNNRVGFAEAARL
T1 sequence (P56817 whole entry): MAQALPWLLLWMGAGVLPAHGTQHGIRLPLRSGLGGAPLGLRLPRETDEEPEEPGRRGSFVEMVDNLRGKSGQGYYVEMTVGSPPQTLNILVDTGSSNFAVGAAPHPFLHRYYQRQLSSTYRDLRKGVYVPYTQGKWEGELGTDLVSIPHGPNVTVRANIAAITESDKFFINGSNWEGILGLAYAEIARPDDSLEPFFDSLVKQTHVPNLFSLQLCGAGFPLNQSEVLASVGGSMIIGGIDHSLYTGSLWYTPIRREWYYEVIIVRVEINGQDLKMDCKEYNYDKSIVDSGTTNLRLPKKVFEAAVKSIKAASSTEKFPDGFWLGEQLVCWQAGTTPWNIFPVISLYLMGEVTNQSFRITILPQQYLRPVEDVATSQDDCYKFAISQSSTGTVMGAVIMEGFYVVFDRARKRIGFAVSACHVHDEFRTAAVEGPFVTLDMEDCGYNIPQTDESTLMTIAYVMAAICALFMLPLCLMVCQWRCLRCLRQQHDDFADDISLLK

The IC50 is the concentration that inhibits the measured activity by half. Lower therefore signals greater potency in that assay. In the case of `CC(C)c1ccc(CO[C@H]2CN(CC(N)=O)C[C@@H]2Nc2nc3cc(F)ccc3[nH]2)cc1`, the half-inhibitory concentration (IC50) against Beta-secretase 1 [1] is above 5000 nM.

At Beta-secretase 1 [1], `COC(=O)CN1C[C@H](Nc2nc3cc(C)ccc3[nH]2)[C@@H](OC(=O)c2ccc(-c3ccccc3)cc2)C1` showed an IC50 of 570 nM.

In turn, `CC(=O)N1C[C@H](Nc2nc3cc(C)ccc3[nH]2)[C@@H](OC(=O)c2ccc(-c3ccccc3)cc2)C1` showed an IC50 at Beta-secretase 1 [1] of 720 nM.

A word on the inhibition: it is the percentage by which the read-out fell short of the control. What is called Papp A→B is the apparent permeability from the apical to the basolateral side of a cell layer. Take `Cc1ccc2[nH]c(N[C@H]3CN(C(=O)c4ccccc4)C[C@@H]3OC(=O)c3ccc(-c4ccccc4)cc3)nc2c1`: the IC50 on Beta-secretase 1 [1] was 390 nM; against Beta-secretase 2, 5700 nM; against Cathepsin D [5], above 10000 nM. The results for the inhibition against Beta-secretase 1 [2] and at Cathepsin D [3] were 52% and 4.2%, respectively. In data set [4], the Papp A→B at 50 µM came to 5.2 ×10⁻⁶ cm/s.

On to `CC(C)c1ccc(CO[C@H]2CN(S(=O)(=O)c3ccccc3)C[C@@H]2Nc2nc3cc(F)ccc3[nH]2)cc1`, for which the IC50 against Beta-secretase 1 [1] worked out at 480 nM.

Consider `CC(C)c1ccc(CO[C@H]2CN(C(=O)OC(C)(C)C)C[C@@H]2Nc2nc3cc(F)ccc3[nH]2)cc1`, for which the concentration for half-maximal inhibition (IC50) against Beta-secretase 1 [1] worked out at 730 nM.

On to `Cc1ccc2[nH]c(N[C@H]3CN(C(=O)OC(C)(C)C)C[C@@H]3OC(=O)c3ccc(-c4ccccc4)cc3)nc2c1`, for which the IC50 at Beta-secretase 1 [1] stood at 210 nM.

Turning to `CC(C)c1ccc(C(=O)O[C@H]2CN(S(=O)(=O)c3ccccc3)C[C@@H]2Nc2nc3cc(F)ccc3[nH]2)cc1`, the IC50 at Beta-secretase 1 [1] was found to be 720 nM.

For the compound `CC(C)c1ccc(CO[C@H]2CN(CCO)C[C@@H]2Nc2nc3cc(F)ccc3[nH]2)cc1`, on Beta-secretase 1 [1], the IC50 was above 5000 nM.

In the case of `CC(C)(C)OC(=O)N1C[C@H](Nc2nc3cc(F)ccc3[nH]2)[C@@H](OCc2ccc(-c3ccccc3)cc2)C1`, the concentration for half-maximal inhibition (IC50) is 120 nM on Beta-secretase 1 [1], 1700 nM against Beta-secretase 1 [6], 8900 nM against Beta-secretase 2 and above 10000 nM against Cathepsin D [5]. For the same compound, the inhibition against Cathepsin D [3] is 5.7%. The Papp A→B at 50 µM in data set [4] is 13 ×10⁻⁶ cm/s.

As to `CC(C)c1ccc(C(=O)O[C@H]2CN(C(=O)OC(C)(C)C)C[C@@H]2Nc2nc3cc(F)ccc3[nH]2)cc1`, the IC50 was 70 nM against Beta-secretase 1 [1], 4400 nM at Beta-secretase 2 and above 10000 nM against Cathepsin D [5]. Further, the inhibition at Beta-secretase 1 [2] was 34%; against Cathepsin D [3], 1.4%. The Papp A→B at 50 µM in data set [4] is 2.3 ×10⁻⁶ cm/s.

Take `Cc1ccc2[nH]c(N[C@H]3CNC[C@@H]3OC(=O)c3ccc(-c4ccccc4)cc3)nc2c1`: the IC50 against Beta-secretase 1 [1] is 660 nM; against Beta-secretase 1 [6] it was 3200 nM; against Beta-secretase 2, 4300 nM; at Cathepsin D [5] it was above 10000 nM. Also, the inhibition against Cathepsin D [3] was determined as 4.5%. Further, the apparent permeability from apical to basolateral (Papp A→B) at 50 µM in data set [4] amounted to 4.8 ×10⁻⁶ cm/s.

On to `CC(C)(C)OC(=O)N1C[C@H](Nc2nc3cc(F)ccc3[nH]2)[C@@H](OC(=O)c2ccc(-c3ccccc3)cc2)C1`, for which the IC50 at Beta-secretase 1 [1] is 50 nM; against Beta-secretase 2, 10100 nM; on Cathepsin D [5] it was above 10000 nM. The inhibition against Beta-secretase 1 [2] was 40%; on Cathepsin D [3], 1.1%. In data set [4], the Papp A→B at 50 µM was found to be 1.5 ×10⁻⁶ cm/s.

In turn, `CCCS(=O)(=O)N1C[C@H](Nc2nc3cc(F)ccc3[nH]2)[C@@H](OCc2ccc(C(C)C)cc2)C1` gave an IC50 against Beta-secretase 1 [1] of 640 nM.

For the compound `Cc1ccc2[nH]c(N[C@H]3CN(C(=O)OC(C)(C)C)C[C@@H]3OC(=O)c3cccc(-c4ccc(F)cc4)c3)nc2c1`, half-maximal inhibition against Beta-secretase 1 [1] (IC50) was put at 190 nM.

For the compound `COc1ccc2[nH]c(N[C@H]3CN(C(=O)OC(C)(C)C)C[C@@H]3OC(=O)c3ccc(-c4ccccc4)cc3)nc2c1`, at Beta-secretase 1 [1], 450 nM corresponded to half-maximal inhibition (IC50).

`CC(C)c1ccc(CO[C@H]2CNC[C@@H]2Nc2nc3cc(F)ccc3[nH]2)cc1`: the IC50 against Beta-secretase 1 [1] was above 5000 nM.

At Beta-secretase 1 [1], `CN(C)c1ccc(C(=O)O[C@H]2CN(C(=O)OC(C)(C)C)C[C@@H]2Nc2nc3cc(F)ccc3[nH]2)cc1` had an IC50 of 1350 nM.

As for `CC(C)(C)OC(=O)N1C[C@H](Nc2nc3cc(Cl)ccc3[nH]2)[C@@H](OC(=O)c2cccc(Oc3ccccc3)c2)C1`, on Beta-secretase 1 [1], the IC50 came out at 360 nM.

In turn, `COc1ccc(N2CCN([C@@H]3CN(C(=O)Nc4cc(Cl)cc(Cl)c4)CC[C@H]3OC(=O)c3ccc(Oc4ccccc4)cc3)CC2)cc1` displayed an IC50 against Beta-secretase 1 [7] of 600 nM.

Take `CCCS(=O)(=O)N1C[C@H](Nc2nc3cc(F)ccc3[nH]2)[C@@H](OC(=O)c2ccc(C(C)C)cc2)C1`: inhibition at Beta-secretase 1 [1] was half-maximal at 670 nM (IC50).

On Beta-secretase 1 [1], `CCCS(=O)(=O)N1C[C@H](Nc2nc3cc(F)ccc3[nH]2)[C@@H](OC(=O)c2ccc(N(C)C)cc2)C1` came in with an IC50 of 3150 nM.

At Beta-secretase 1 [1], `CC(C)(C)OC(=O)N1C[C@H](Nc2nc3cc(Cl)ccc3[nH]2)[C@@H](OC(=O)c2ccc(-c3ccccc3)cc2)C1` registered an IC50 of 440 nM.
